From PubChem BioAssay AID1918954 (Molecular Pharmacology Branch, DTP, NCI, 2023)

Test system: MDA-MB-468 complex spheroids with HUVEC/MSC, viability
Test: Anticancer human tumor MDA-MB-468 cell line growth inhibition;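 also: spheroids exposed to agents for seven days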;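 as to viability, T/C: 100% = DMSO vehicle control viability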
Details: for IC50: curve of first compound; for viability, T/C: stronger effect = lower value
Method in brief: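 Drug combinations with the LSD1 inhibitor iadademstat tested on tumor cells co-cultured as spheroids with endothelial cells and mesenchymal stem cells. Concentrations descended in half-log increments from clinical Cmax or 10 microM.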

[1] = second compound 0.1 µM, first compound 0.00316 µM
[2] = second compound 0.1 µM, first compound 0.01 µM
[3] = second compound 0.1 µM, first compound 0.0316 µM
[4] = second compound 0.1 µM, first compound 0.1 µM
[5] = second compound 0.316 µM, first compound 0.00316 µM
[6] = second compound 0.316 µM, first compound 0.01 µM
[7] = second compound 0.316 µM, first compound 0.0316 µM
[8] = second compound 0.316 µM, first compound 0.1 µM
[9] = second compound 1 µM, first compound 0.00316 µM
[10] = second compound 1 µM, first compound 0.01 µM
[11] = second compound 1 µM, first compound 0.0316 µM
[12] = second compound 1 µM, first compound 0.1 µM
[13] = second compound 3.16 µM, first compound 0.00316 µM
[14] = second compound 3.16 µM, first compound 0.01 µM
[15] = second compound 3.16 µM, first compound 0.0316 µM
[16] = second compound 3.16 µM, first compound 0.1 µM
[17] = second compound 10 µM, first compound 0.00316 µM
[18] = second compound 10 µM, first compound 0.01 µM
[19] = second compound 10 µM, first compound 0.0316 µM
[20] = second compound 10 µM, first compound 0.1 µM
[21] = second compound 0.1 µM, first compound 0.00949 µM
[22] = second compound 0.1 µM, first compound 0.03 µM
[23] = second compound 0.1 µM, first compound 0.0949 µM
[24] = second compound 0.1 µM, first compound 0.3 µM
[25] = second compound 0.1 µM, first compound 0.949 µM
[26] = second compound 0.1 µM, first compound 3 µM
[27] = second compound 0.316 µM, first compound 0.00949 µM
[28] = second compound 0.316 µM, first compound 0.03 µM
[29] = second compound 0.316 µM, first compound 0.0949 µM
[30] = second compound 0.316 µM, first compound 0.3 µM
[31] = second compound 0.316 µM, first compound 0.949 µM
[32] = second compound 0.316 µM, first compound 3 µM
[33] = second compound 1 µM, first compound 0.00949 µM
[34] = second compound 1 µM, first compound 0.03 µM
[35] = second compound 1 µM, first compound 0.0949 µM
[36] = second compound 1 µM, first compound 0.3 µM
[37] = second compound 1 µM, first compound 0.949 µM
[38] = second compound 1 µM, first compound 3 µM
[39] = second compound 3.16 µM, first compound 0.00949 µM
[40] = second compound 3.16 µM, first compound 0.03 µM
[41] = second compound 3.16 µM, first compound 0.0949 µM
[42] = second compound 3.16 µM, first compound 0.3 µM
[43] = second compound 3.16 µM, first compound 0.949 µM
[44] = second compound 3.16 µM, first compound 3 µM
[45] = second compound 10 µM, first compound 0.00949 µM
[46] = second compound 10 µM, first compound 0.03 µM
[47] = second compound 10 µM, first compound 0.0949 µM
[48] = second compound 10 µM, first compound 0.3 µM
[49] = second compound 10 µM, first compound 0.949 µM
[50] = second compound 10 µM, first compound 3 µM

COc1cc(Nc2ncc3c(n2)-c2ccc(Cl)cc2C(c2c(F)cccc2OC)=NC3)ccc1C(=O)O + NC1CCC(NC2CC2c2ccccc2)CC1
IC50 (second compound 0.1 µM): 5.48 nM
IC50 (second compound 0.316 µM): 5.74 nM
IC50 (second compound 1 µM): 5.62 nM
IC50 (second compound 3.16 µM): 4.4 nM
IC50 (second compound 10 µM): 4.25 nM
viability, T/C [1]: 67.1%
viability, T/C [2]: 31%
viability, T/C [3]: 15.9%
viability, T/C [4]: 7.27%
viability, T/C (second compound 0.1 µM, first compound 0.316 µM): 7.36%
viability, T/C (second compound 0.1 µM, first compound 1 µM): 6.36%
viability, T/C [5]: 70.7%
viability, T/C [6]: 30.2%
viability, T/C [7]: 16.6%
viability, T/C [8]: 8.6%
viability, T/C (second compound 0.316 µM, first compound 0.316 µM): 7.02%
viability, T/C (second compound 0.316 µM, first compound 1 µM): 7.03%
viability, T/C [9]: 69%
viability, T/C [10]: 29.8%
viability, T/C [11]: 17.8%
viability, T/C [12]: 8.46%
viability, T/C (second compound 1 µM, first compound 0.316 µM): 6.49%
viability, T/C (second compound 1 µM, first compound 1 µM): 7.09%
viability, T/C [13]: 57.8%
viability, T/C [14]: 30.5%
viability, T/C [15]: 19.4%
viability, T/C [16]: 9.33%
viability, T/C (second compound 3.16 µM, first compound 0.316 µM): 7.94%
viability, T/C (second compound 3.16 µM, first compound 1 µM): 6.66%
viability, T/C [17]: 57.7%
viability, T/C [18]: 28%
viability, T/C [19]: 19.1%
viability, T/C [20]: 11.6%
viability, T/C (second compound 10 µM, first compound 0.316 µM): 8.23%
viability, T/C (second compound 10 µM, first compound 1 µM): 9.73%

Cn1ncnc1C1c2n[nH]c(=O)c3cc(F)cc(c23)NC1c1ccc(F)cc1 (stereo not given) + NC1CCC(NC2CC2c2ccccc2)CC1
IC50 (second compound 0.1 µM): 90.3 nM
IC50 (second compound 0.316 µM): > 100 nM
IC50 (second compound 1 µM): > 100 nM
IC50 (second compound 3.16 µM): > 100 nM
IC50 (second compound 10 µM): 24 nM
viability, T/C (second compound 0.1 µM, first compound 0.000316 µM): 74.5%
viability, T/C (second compound 0.1 µM, first compound 0.001 µM): 81.9%
viability, T/C [1]: 81.3%
viability, T/C [2]: 71.8%
viability, T/C [3]: 70.8%
viability, T/C [4]: 47.8%
viability, T/C (second compound 0.316 µM, first compound 0.000316 µM): 94.9%
viability, T/C (second compound 0.316 µM, first compound 0.001 µM): 84.6%
viability, T/C [5]: 91.5%
viability, T/C [6]: 76.9%
viability, T/C [7]: 70.8%
viability, T/C [8]: 49.5%
viability, T/C (second compound 1 µM, first compound 0.000316 µM): 65.5%
viability, T/C (second compound 1 µM, first compound 0.001 µM): 85%
viability, T/C [9]: 80.4%
viability, T/C [10]: 65.7%
viability, T/C [11]: 60.4%
viability, T/C [12]: 50.3%
viability, T/C (second compound 3.16 µM, first compound 0.000316 µM): 80.6%
viability, T/C (second compound 3.16 µM, first compound 0.001 µM): 86.9%
viability, T/C [13]: 72.7%
viability, T/C [14]: 62.7%
viability, T/C [15]: 60.3%
viability, T/C [16]: 54.7%
viability, T/C (second compound 10 µM, first compound 0.000316 µM): 67.5%
viability, T/C (second compound 10 µM, first compound 0.001 µM): 57%
viability, T/C [17]: 62.4%
viability, T/C [18]: 56.4%
viability, T/C [19]: 46.7%
viability, T/C [20]: 40.3%

NS(=O)(=O)OCC1CC(n2ccc3c(NC4CCc5ccccc54)ncnc32)CC1O (stereo not given) + NC1CCC(NC2CC2c2ccccc2)CC1
IC50 (second compound 0.1 µM): 24.5 nM
IC50 (second compound 0.316 µM): 28 nM
IC50 (second compound 1 µM): 27.6 nM
IC50 (second compound 3.16 µM): 20.6 nM
IC50 (second compound 10 µM): < 9.49 nM
viability, T/C [21]: 74.4%
viability, T/C [22]: 45%
viability, T/C [23]: 16.9%
viability, T/C [24]: 9.63%
viability, T/C [25]: 6.43%
viability, T/C [26]: 4.54%
viability, T/C [27]: 75.9%
viability, T/C [28]: 48.4%
viability, T/C [29]: 17.9%
viability, T/C [30]: 8.22%
viability, T/C [31]: 6.34%
viability, T/C [32]: 4.71%
viability, T/C [33]: 66%
viability, T/C [34]: 48.9%
viability, T/C [35]: 14.8%
viability, T/C [36]: 9.7%
viability, T/C [37]: 7.19%
viability, T/C [38]: 4.84%
viability, T/C [39]: 69.5%
viability, T/C [40]: 40.7%
viability, T/C [41]: 16.4%
viability, T/C [42]: 8.71%
viability, T/C [43]: 6.1%
viability, T/C [44]: 4.26%
viability, T/C [45]: 46.8%
viability, T/C [46]: 27%
viability, T/C [47]: 11.4%
viability, T/C [48]: 5.55%
viability, T/C [49]: 4.09%
viability, T/C [50]: 3.17%

O=C(C=Cc1cccc(S(=O)(=O)Nc2ccccc2)c1)NO + NC1CCC(NC2CC2c2ccccc2)CC1
IC50 (second compound 0.1 µM): 81.6 nM
IC50 (second compound 0.316 µM): 77.5 nM
IC50 (second compound 1 µM): 67.3 nM
IC50 (second compound 3.16 µM): 61.3 nM
IC50 (second compound 10 µM): 9.78 nM
viability, T/C [21]: 90.7%
viability, T/C [22]: 81.5%
viability, T/C [23]: 44.5%
viability, T/C [24]: 15%
viability, T/C [25]: 2.65%
viability, T/C [26]: 4.46%
viability, T/C [27]: 86.7%
viability, T/C [28]: 73.6%
viability, T/C [29]: 45.1%
viability, T/C [30]: 17%
viability, T/C [31]: 2.84%
viability, T/C [32]: 4.29%
viability, T/C [33]: 74.1%
viability, T/C [34]: 65.7%
viability, T/C [35]: 42.9%
viability, T/C [36]: 18.7%
viability, T/C [37]: 3.4%
viability, T/C [38]: 3.26%
viability, T/C [39]: 68.9%
viability, T/C [40]: 64.4%
viability, T/C [41]: 41%
viability, T/C [42]: 15.4%
viability, T/C [43]: 3.52%
viability, T/C [44]: 3.55%
viability, T/C [45]: 49.8%
viability, T/C [46]: 48.4%
viability, T/C [47]: 36.3%
viability, T/C [48]: 13.8%
viability, T/C [49]: 3.3%
viability, T/C [50]: 2.37%
